Results taken from patent US20020107283A1, “Carbamate compounds for use in preventing or treating neuropathic pain and cluster and migraine headache-associated pain” (priority 2000, published 2002).

How the values were obtained:
[1] = tested on: Chung model of neuropathic pain (L5 spinal nerve ligated rats, mechanical allodynia); assay: Antiallodynic activity in the Chung model, manually applied von Frey probes; type: in vivo, Sprague-Dawley rats
Source text: The procedure used to test the antiallodynic activity of an enantiomer of Formula (I) substantially free of other enantiomers was the procedure for the measurement of allodynia found in the Chung Model (Kim S. H. and Chung J. M., An Experimental Model for Peripheral Neuropathy Produced by Segmental Spinal Nerve Ligation in the Rat, Pain, 1992, 50, 355-363).
Pathogen-free, male albino Sprague-Dawley rats, 200 g, were purchased from Harlan Industries (Indianapolis, Ind.) and maintained on a 12-h light/dark cycle (lights on at 06:00 h) in a climate-controlled room with food and water available ad libitum up to the time of the testing and food withdrawn 18 hr prior to testing.
The rats were anesthetized with isoflurane inhalant anesthesia. The left lumbar spinal nerve at the level of L5 was tightly ligated (4-0 silk suture) distal to the dorsal root ganglion and prior to entrance into the sciatic nerve, as described by Kim and Chung. The incisions were closed and the rats were allowed to recover under conditions described above. This procedure results in mechanical allodynia in the left hind paw. The sham operation, when performed, consisted of a similar surgical procedure lacking only the final ligation of the spinal nerve. Mechanical (tactile) allodynia was assessed by recording the pressure at which the affected paw (ipsilateral to the site of nerve injury) was withdrawn from graded stimuli (von Frey filaments ranging from 4.0 to 148.1 mN) applied by hand perpendicularly to the plantar surface of the paw (between the footpads) through wire-mesh observation cages. A paw withdrawal threshold (PWT) was determined by sequentially increasing and decreasing the stimulus strength and analyzing withdrawal data using a Dixon non-parametric test, as described by Chaplan et al (Chaplan S. R., Bach F. W., Pogrel J. W., Chung J. M. and Yaksh T. L., Quantitative Assessment of Tactile Allodynia in the Rat Paw, J Neurosci Meth, 1994, 53, 55-63). Normal rats, sham operated rats, and the contralateral paw of L5 ligated rats withstand at least 148.1 mN (equivalent to 15 g) of pressure without responding. Spinal nerve ligated rats respond to as little as 4.0 mN (equivalent to 0.41 g) of pressure on the affected paw. […] The PWT was used to calculate the % maximal possible effect (% MPE) according to the formula:
% MPE=100×(PWT−CT)/(CO−CT).
As summarized in Table 1 below, the enantiomer of Formula (Ib) substantially free of other enantiomers was screened for antiallodynic activity in the Chung model of neuropathic pain at a dose of 30 mg/kg, po, with responses being measured at 0.5, 1, 2 and 4 hr post dosing.

[2] = tested on: L5 and L6 spinal nerve ligated rats, mechanical allodynia; assay: Antiallodynic activity, electronic Von Frey probes, L5 and L6 spinal nerve ligation; type: in vivo, Rj: Wistar (Han) rats
Method: Pathogen-free, male Rj: Wistar (Han) rats (300-380 g) were purchased from Elevage Janvier, 53940 Le Genest-Saint-Isle, France. The animals were maintained on a 12-h light/dark cycle (lights on from 7:00-19:00) in a controlled ambient temperature of 21±1° C., and relative humidity maintained at 40-70%. The animals had free access to food (UAR 113) and tap water until tested.
Rats were anesthetized (sodium pentobarbital 40 mg/kg i.p.). A ligature was tied tightly around the left L5 and L6 spinal nerves. The rats received an i.m. injection of 50 000 IU Penicillin (Diamant®) and were allowed to recover. This procedure results in mechanical allodynia in the left hind paw. Two weeks after the surgery, when the allodynic state was fully developed, rats were submitted consecutively to tactile stimulation of both the non-lesioned and the lesioned hindpaws.
The animals were placed on an elevated grid floor in Plexiglass boxes (19×11.5×13 cm). The tip of an electronic Von Frey probe (Bioseb, Model 1610) was then applied with increasing pressure to the lesioned and non-lesioned hindpaws and the force required to induce paw-withdrawal was automatically recorded. Prior to receiving drug treatment all animals were submitted to tactile stimulation and assigned to treatment groups matched on the basis of their pain response. This procedure was carried out 3 times for each paw and the mean paw force was calculated to provide basic scores per animal. Data were expressed as percent change (means ±SEM) of effectiveness from the controls. Statistical analysis was done using non-paired and paired Student's t tests.
As summarized in Table 2 below, an enantiomer of Formula (Ib) substantially free of other enantiomers was evaluated at the doses 10, 30 and 100 mg/kg (n=8), administered p.o. in a volume of 5 mL/kg. Morphine (128 mg/kg) was used as reference substance. Control animals received a p.o. administration of vehicle. The test was performed blind 30, 60 and 90 minutes after drug administration.

SMILES | % Maximum Possible Effect ([1]; 30 mg/kg, po, paw withdrawal threshold, activity seen at 30 min post-dosing, n=5) | time course of antiallodynic activity ([1]; 30 mg/kg, po, responses measured at 0.5, 1, 2 and 4 hr post dosing) | dose dependence of antiallodynic responses ([1]; about 5 mg/kg, p.o. to about 45 mg/kg, p.o., 30 min) | time of peak antiallodynic effect ([1]; after oral dosing) | maximum % MPE ([1]; highest dose tested (about 45 mg/kg, p.o.), 30 min after oral dosing, N=5) | % Change (paw-withdrawal force from controls) ([2]; 10 mg/kg p.o., ligatured paw, 60 minute measurement, n=8, p ns) | % Change (paw-withdrawal force from controls) ([2]; 30 mg/kg p.o., ligatured paw, 60 minute measurement, n=8, p <0.05) | % Change (paw-withdrawal force from controls) ([2]; 100 mg/kg p.o., ligatured paw, 60 minute measurement, n=8, p <0.05) | effect on the non-ligatured paw ([2]; 10, 30 and 100 mg/kg p.o., 60 minute measurement) | anti-allodynic effect at 90 min post-dosing ([2]; p.o., 90 min post-dosing) | % Change (paw-withdrawal force from controls) ([2]; 128 mg/Kg morphine, positive control)
NC(=O)OC[C@@H](O)c1ccccc1Cl [enantiomer of Formula (Ib)] | 51% | exhibited antiallodynic activity at 30 min. post-dosing, and responses returned to baseline by one hour | dose-dependent | 30 min | 60% | 65% | 80% | 72% | without affecting the non-ligatured paw | no longer present by 90 min post-dosing | 
CN1CC[C@]23c4c5ccc(O)c4O[C@H]2[C@@H](O)C=C[C@H]3[C@H]1C5 [morphine, Morphine, reference compound] |  |  |  |  |  |  |  |  |  |  | 38%
